From US20260234124A1, “Substituted Pyrazolyl-Pyridinyl Compounds as Ligand Directed Degraders of IRAK3” (Celgene Corporation, priority 2022, published 2026)

biological target: T1, IRAK3 (Homo sapiens, UniProt Q9Y616); assay: IRAK endogenous HTRF degradation assay (Total-IRAK3 HTRF kit); type: cell-based; set-up: IRAK Endogenous HTRF Degradation Assay; endogenous in cells; conditions: endogenous IRAK3, overnight incubation; % Dmax = 100 − Ymin
T1 sequence (Q9Y616 1-596): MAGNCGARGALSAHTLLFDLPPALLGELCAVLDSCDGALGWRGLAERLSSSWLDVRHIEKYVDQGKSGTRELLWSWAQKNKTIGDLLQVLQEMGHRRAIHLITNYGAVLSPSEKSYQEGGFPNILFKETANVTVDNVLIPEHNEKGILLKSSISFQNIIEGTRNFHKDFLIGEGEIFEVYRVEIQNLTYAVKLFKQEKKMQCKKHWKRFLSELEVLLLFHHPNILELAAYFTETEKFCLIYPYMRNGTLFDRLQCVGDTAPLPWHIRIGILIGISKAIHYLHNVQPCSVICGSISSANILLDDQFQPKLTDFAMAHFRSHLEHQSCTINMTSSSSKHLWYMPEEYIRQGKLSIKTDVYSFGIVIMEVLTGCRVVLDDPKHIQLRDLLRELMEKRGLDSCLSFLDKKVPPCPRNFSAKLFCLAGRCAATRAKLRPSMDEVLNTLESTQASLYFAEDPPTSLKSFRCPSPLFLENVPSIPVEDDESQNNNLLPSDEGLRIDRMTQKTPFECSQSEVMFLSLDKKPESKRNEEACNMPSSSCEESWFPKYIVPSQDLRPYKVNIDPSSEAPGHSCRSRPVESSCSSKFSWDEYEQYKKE
Method: Example B2. IRAK Endogenous HTRF Degradation Assay
Cells (~50k) were plated in Cisbio 96-well low volume white plates (Cisbio: cat #66PL96005). Compounds were dissolved in DMSO and a 3-fold serial dilution was performed using a TECAN D300E. Cells were incubated with the compound overnight. Total-IRAK3 HTRF kit from Cisbio was used for degradation analysis (Cisbio: 63ADK101PEH). Cryptate and D2 antibodies were diluted in Detection buffer as per manufacturers recommendation. Then 2 μL of each solution was added to 16 μL lysate. Buffer control (lysis buffer detection buffer), Cryptate control (lysis buffer+cryptate antibody+detection buffer), and Negative control (lysis buffer+cryptate antibody+D2 antibody) were made as per manufacturers recommendation. Post incubation with antibodies the HTRF signal was measured using a Perkin Elmer Envision reader and the HTRF signal was calculated using formula: (Emission at 665 nm/Emission at 615 nm)*10,000. All HTRF values were normalized to the average value of DMSO. The average value of the DMSO control wells were set to equal 100% of the relative IRAK3 protein levels. Normalized luminescence values were plotted on a graph as a function of compound concentration. Compound concentration was plotted on the x-axis and the corresponding normalized IRAK3 protein levels on the y-axis. The EC50 value (the half-maximum effective concentration) of a compound for the degradation of the IRAK3 was calculated using a four-parameter logistic model (sigmoidal dose-response model) (FIT=(A+{(B−A)/1+[(C/x)D]})) where C is the inflection point (EC50), D is the […], and A and B are the low and high limits of the fit, respectively). The Ymin was calculated by determining the lowest percentage of target protein remaining following compound treatment. Dmax was calculated from Ymin (% Dmax=100−Ymin).
Using these assays, IC50, Dmax, EC50, and DC50 values of the following compounds were determined. Dmax is defined as the maximum percent degradation achieved and DC50 is the concentration at which 50% degradation is achieved.

Point of comparison: `C[C@@H](Oc1cc(-c2cnn(C3CCN(C4CCC5(CC4)CCN(C(=O)c4cccc6c4CN(C4CCC(=O)NC4=O)C6=O)CC5)CC3)c2)cnc1N)c1c(Cl)ccc(F)c1Cl` (stereo partly drawn) [Compound 21, 3-(4-(9-(4-(4-(6-amino-5-((R)-1-(2,6-dichloro-3-fluorophenyl)ethoxy)pyridin-3-yl)-1H-pyrazol-1-yl)piperidin-1-yl)-3-azaspiro[5.5]undecane-3-carbonyl)-1-oxoisoindolin-2-yl)piperidine-2,6-dione], Dmax 68%. Against it:
- C[C@@H](Oc1cc(-c2cnn(C3CCN(C4CCC5(CC4)CCN(C(=O)c4ccc6c(c4)C(=O)N(C4CCC(=O)NC4=O)C6=O)CC5)CC3)c2)cnc1N)c1c(Cl)ccc(F)c1Cl (stereo partly drawn) [Compound 18, 5-(9-(4-(4-(6-amino-5-((R)-1-(2,6-dichloro-3-fluorophenyl)ethoxy)pyridin-3-yl)-1H-pyrazol-1-yl)piperidin-1-yl)-3-azaspiro[5.5]undecane-3-carbonyl)-2-(2,6-dioxopiperidin-3-yl)isoindoline-1,3-dione] — higher, 73%
- Cc1ncsc1-c1ccc(CNC(=O)[C@@H]2C[C@@H](O)CN2C(=O)[C@@H](NC(=O)COCCOCCOCCOCCOCCOCCN2CCC(n3cc(-c4cnc(N)c(O[C@H](C)c5c(Cl)ccc(F)c5Cl)c4)cn3)CC2)C(C)(C)C)cc1 [Compound 6, (2S,4R)-1-((S)-23-(4-(4-(6-amino-5-((R)-1-(2,6-dichloro-3-fluorophenyl)ethoxy)pyridin-3-yl)-1H-pyrazol-1-yl)piperidin-1-yl)-2-(tert-butyl)-4-oxo-6,9,12,15,18,21-hexaoxa-3-azatricosanoyl)-4-hydroxy-N-(4-(4-methylthiazol-5-yl)benzyl)pyrrolidine-2-carboxamide] — lower, 56%
- C[C@@H](Oc1cc(-c2cnn(C3CCN(CCOCCOCCOCCNC(=O)COc4ccc5c(c4)C(=O)N(C4CCC(=O)NC4=O)C5=O)CC3)c2)cnc1N)c1c(Cl)ccc(F)c1Cl (stereo partly drawn) [Compound 16, N-(2-(2-(2-(2-(4-(4-(6-amino-5-((R)-1-(2,6-dichloro-3-fluorophenyl)ethoxy)pyridin-3-yl)-1H-pyrazol-1-yl)piperidin-1-yl)ethoxy)ethoxy)ethoxy)ethyl)-2-((2-(2,6-dioxopiperidin-3-yl)-1,3-dioxoisoindolin-5-yl)oxy)acetamide] — lower, 25%
- C[C@@H](Oc1cc(-c2cnn(C3CCN(C4CCC5(CC4)CCN(C(=O)c4ccc6c(c4)C(=O)N(C4CCC(=O)NC4=O)C6)CC5)CC3)c2)cnc1N)c1c(Cl)ccc(F)c1Cl (stereo partly drawn) [Compound 19, 3-(6-(9-(4-(4-(6-amino-5-((R)-1-(2,6-dichloro-3-fluorophenyl)ethoxy)pyridin-3-yl)-1H-pyrazol-1-yl)piperidin-1-yl)-3-azaspiro[5.5]undecane-3-carbonyl)-1-oxoisoindolin-2-yl)piperidine-2,6-dione] — lower, 42%
- Cc1ncsc1-c1ccc(CNC(=O)[C@@H]2C[C@@H](O)CN2C(=O)[C@@H](NC(=O)COCCOCCOCCOCCOCCOCCOCCN2CCC(n3cc(-c4cnc(N)c(O[C@H](C)c5c(Cl)ccc(F)c5Cl)c4)cn3)CC2)C(C)(C)C)cc1 [Compound 7, (2S,4R)-1-((S)-26-(4-(4-(6-amino-5-((R)-1-(2,6-dichloro-3-fluorophenyl)ethoxy)pyridin-3-yl)-1H-pyrazol-1-yl)piperidin-1-yl)-2-(tert-butyl)-4-oxo-6,9,12,15,18,21,24-heptaoxa-3-azahexacosanoyl)-4-hydroxy-N-(4-(4-methylthiazol-5-yl)benzyl)pyrrolidine-2-carboxamide] — lower, 50%
- C[C@@H](Oc1cc(-c2cnn(C3CCN(CCOCCOCCOCCNC(=O)COc4cccc5c4C(=O)N(C4CCC(=O)NC4=O)C5=O)CC3)c2)cnc1N)c1c(Cl)ccc(F)c1Cl (stereo partly drawn) [Compound 11, N-(2-(2-(2-(2-(4-(4-(6-amino-5-((R)-1-(2,6-dichloro-3-fluorophenyl)ethoxy)pyridin-3-yl)-1H-pyrazol-1-yl)piperidin-1-yl)ethoxy)ethoxy)ethoxy)ethyl)-2-((2-(2,6-dioxopiperidin-3-yl)-1,3-dioxoisoindolin-4-yl)oxy)acetamide] — lower, 38%
- C[C@@H](Oc1cc(-c2cnn(C3CCN(C4CCC5(CC4)CCN(C(=O)c4ccc6c(c4)CN(C4CCC(=O)NC4=O)C6=O)CC5)CC3)c2)cnc1N)c1c(Cl)ccc(F)c1Cl (stereo partly drawn) [Compound 20, 3-(5-(9-(4-(4-(6-amino-5-((R)-1-(2,6-dichloro-3-fluorophenyl)ethoxy)pyridin-3-yl)-1H-pyrazol-1-yl)piperidin-1-yl)-3-azaspiro[5.5]undecane-3-carbonyl)-1-oxoisoindolin-2-yl)piperidine-2,6-dione] — higher, 73%
- C[C@@H](Oc1cc(-c2cnn(C3CCN(CCOCCOCCOCCOCCNC(=O)COc4cccc5c4C(=O)N(C4CCC(=O)NC4=O)C5=O)CC3)c2)cnc1N)c1c(Cl)ccc(F)c1Cl (stereo partly drawn) [Compound 12, N-(14-(4-(4-(6-amino-5-((R)-1-(2,6-dichloro-3-fluorophenyl)ethoxy)pyridin-3-yl)-1H-pyrazol-1-yl)piperidin-1-yl)-3,6,9,12-tetraoxatetradecyl)-2-((2-(2,6-dioxopiperidin-3-yl)-1,3-dioxoisoindolin-4-yl)oxy)acetamide] — lower, 33%
- Cc1ncsc1-c1ccc(CNC(=O)[C@@H]2C[C@@H](O)CN2C(=O)[C@@H](NC(=O)COCCOCCN2CCC(n3cc(-c4cnc(N)c(O[C@H](C)c5c(Cl)ccc(F)c5Cl)c4)cn3)CC2)C(C)(C)C)cc1 [Compound 2, (2S,4R)-1-((S)-2-(2-(2-(2-(4-(4-(6-amino-5-((R)-1-(2,6-dichloro-3-fluorophenyl)ethoxy)pyridin-3-yl)-1H-pyrazol-1-yl)piperidin-1-yl)ethoxy)ethoxy)acetamido)-3,3-dimethylbutanoyl)-4-hydroxy-N-(4-(4-methylthiazol-5-yl)benzyl)pyrrolidine-2-carboxamide] — lower, 35%
- Cc1ncsc1-c1ccc(CNC(=O)[C@@H]2C[C@@H](O)CN2C(=O)[C@@H](NC(=O)COCCOCCOCCN2CCC(n3cc(-c4cnc(N)c(O[C@H](C)c5c(Cl)ccc(F)c5Cl)c4)cn3)CC2)C(C)(C)C)cc1 [Compound 3, (2S,4R)-1-((S)-14-(4-(4-(6-amino-5-((R)-1-(2,6-dichloro-3-fluorophenyl)ethoxy)pyridin-3-yl)-1H-pyrazol-1-yl)piperidin-1-yl)-2-(tert-butyl)-4-oxo-6,9,12-trioxa-3-azatetradecanoyl)-4-hydroxy-N-(4-(4-methylthiazol-5-yl)benzyl)pyrrolidine-2-carboxamide] — lower, 42%
- C[C@@H](Oc1cc(-c2cnn(C3CCN(CCNC(=O)COc4cccc5c4C(=O)N(C4CCC(=O)NC4=O)C5=O)CC3)c2)cnc1N)c1c(Cl)ccc(F)c1Cl (stereo partly drawn) [Compound 8, N-(2-(4-(4-(6-amino-5-((R)-1-(2,6-dichloro-3-fluorophenyl)ethoxy)pyridin-3-yl)-1H-pyrazol-1-yl)piperidin-1-yl)ethyl)-2-((2-(2,6-dioxopiperidin-3-yl)-1,3-dioxoisoindolin-4-yl)oxy)acetamide] — lower, 37%
- Cc1ncsc1-c1ccc(CNC(=O)[C@@H]2C[C@@H](O)CN2C(=O)[C@@H](NC(=O)CCCN2CCC(n3cc(-c4cnc(N)c(O[C@H](C)c5c(Cl)ccc(F)c5Cl)c4)cn3)CC2)C(C)(C)C)cc1 [Compound 1, (2S,4R)-1-((S)-2-(4-(4-(4-(6-amino-5-((R)-1-(2,6-dichloro-3-fluorophenyl)ethoxy)pyridin-3-yl)-1H-pyrazol-1-yl)piperidin-1-yl)butanamido)-3,3-dimethylbutanoyl)-4-hydroxy-N-(4-(4-methylthiazol-5-yl)benzyl)pyrrolidine-2-carboxamide] — lower, 41%
